Data reported in patent publication US20230406885A1, “CYCLIC PEPTIDES FOR TRAPPING INTERLEUKIN-1 BETA” (MERCK SHARP & DOHME LLC, priority 2022, published 2023).
Where a SMILES comes first, the peptide text is derived from it. [ ]: non-standard residue; d: D form. Trp(4-Cl)(βS-Me) = C[C@@H](c1c[nH]c2cccc(Cl)c12)[C@H](N)C(=O)O; Bip(4'-COOH) = N[C@@H](Cc1ccc(-c2ccc(C(=O)O)cc2)cc1)C(=O)O; 1Nal(3S-Me) = C[C@@H](c1cccc2ccccc12)[C@H](N)C(=O)O; Ala(pyrimidin-5-yl) = N[C@@H](Cc1cncnc1)C(=O)O; Phe(4-COOH) = N[C@@H](Cc1ccc(C(=O)O)cc1)C(=O)O; Trp(7-aza) = N[C@@H](Cc1c[nH]c2ncccc12)C(=O)O; h3Pal(5-CN) = N#Cc1cncc(CC[C@H](N)C(=O)O)c1; Pro(4R-NH2) = N[C@H]1CN[C@H](C(=O)O)C1; 1Nal = N[C@@H](Cc1cccc2ccccc12)C(=O)O; hTyr = N[C@@H](CCc1ccc(O)cc1)C(=O)O; dDab = NCC[C@@H](N)C(=O)O; dNMeA = CN[C@H](C)C(=O)O; Dap = NC[C@H](N)C(=O)O; Aib = CC(C)(N)C(=O)O

biological target: T1, Recombinant human IL-1β (Homo sapiens, UniProt P01584); test: IL-6 assay in MRC5 cells: inhibition of IL-1β induced IL-6 secretion (AlphaLISA); type: cell-based; settings: inhibition of IL-1β induced IL-6 secretion in MRC5 cells; IL-1β pre-incubated 1 hour with compound; read-out: MRC5 IC50
T1 construct: purchased BioLegend 579404
Experimental: Procedure for IL-6 Assay in MRC5 Cells
The inhibition of IL-1β induced IL-6 secretion was evaluated in MRC5 cells. Recombinant human IL-1β (BioLegend 579404) at 2×EC80 concentration was prepared in seeding medium, EMEM (ATCC 30-2003) with 0.025% BSA (Sigma A9576), 1× penicillin/streptomycin (Gibco 15070-063), 1×NEAA (Gibco 11140-050), 1× GlutaMax (Gibco 35050-061), and 1× sodium pyruvate (Gibco 11360-070). 20 μL of IL-1β was added to a 384-well collagen-coated plate (Corning 354664) and pre-incubated at ambient temperature for 1 hour with 200 nL of compound dispensed using an ECHO 555 liquid handler. Human lung fibroblast MRC5 cells (ATCC CCL-171) were added at a density of 3000 cells/20 μL per well. The cells were prepared by passaging three times in growth medium, EMEM (ATCC 30-2003) with 10% fetal bovine serum (Gibco 16140-071), 1× penicillin/streptomycin (Gibco 15070-063), 1×NEAA (Gibco 11140-050), 1× GlutaMax (Gibco 35050-061), and 1× sodium pyruvate (Gibco 11360-070) in collagen-coated T175 flasks (Greiner 661950) and harvested in seeding medium after 5 minutes of 0.25% trypsin-EDTA (Gibco 25200-056) digestion. The 384-well collagen-coated plate, containing a final volume of 40 μL, was incubated at 37° C., 5% CO2 overnight. 5 μL of the conditioned medium was transferred to a 384-well AlphaLISA plate (PerkinElmer 6005350) for detection of IL-6 using the human AlphaLISA IL-6 kit (PerkinElmer AL223F) as per the manufacturer's protocol. 20 μL of the acceptor bead/biotinylated antibody mix was added to the 384-well AlphaLISA plate and incubated for 1 hour at ambient temperature. The donor bead mix was protected from light and 25 μL was added to the plate and incubated for 30 minutes at ambient temperature. The AlphaLISA plate was read on an EnVision multimode plate reader (Perkin Elmer model 2104) using the AlphaScreen setting (laser exc at 680 nm and emis at 570 nm). Dose response curves and IC50 values were analyzed using a 4-parameter logistic equation in Spotfire software (Tibco, Palo Alto, CA).

T1 sequence (P01584 117-269): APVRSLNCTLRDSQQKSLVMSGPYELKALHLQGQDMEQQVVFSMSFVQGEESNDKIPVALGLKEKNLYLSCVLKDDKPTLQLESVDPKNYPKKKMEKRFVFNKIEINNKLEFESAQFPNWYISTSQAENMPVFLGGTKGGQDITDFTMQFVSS

| SMILES | IC50 [nM] |
| --- | --- |
| CC(C)C[C@@H]1NC(=O)[C@H](CCCCN)NC(=O)[C@H](Cc2ccc(-c3ccc(C(=O)O)cc3)cc2)NC(=O)CNC(=O)[C@@H](C)N(C)C(=O)[C@H](CC(=O)O)NC(=O)[C@H]([C@@H](C)c2cccc3ccccc23)NC(=O)[C@@H]2C[C@@H](N)CN2C(=O)CNC(=O)[C@H](Cc2ccc(C(=O)O)cc2)NC(=O)[C@H](Cc2c[nH]c3ccccc23)NC(=O)[C@H](Cc2ccc(-c3ccc(C(=O)O)cc3)cc2)NC(=O)[C@H](CCc2ccc(O)cc2)NC(=O)[C@@H](C)NC1=O [Example 25] (cyclo([Bip(4'-COOH)]W[Phe(4-COOH)]G[Pro(4R-NH2)][1Nal(3S-Me)]D[dNMeA]G[Bip(4'-COOH)]KL[dA][hTyr])) | 0.0542 |
| CC(C)C[C@@H]1NC(=O)[C@H](CCCCN)NC(=O)[C@H](Cc2ccc(-c3ccc(C(=O)O)cc3)cc2)NC(=O)CNC(=O)[C@@H](C)N(C)C(=O)[C@H](CC(=O)O)NC(=O)[C@H]([C@@H](C)c2cccc3ccccc23)NC(=O)[C@@H]2C[C@@H](N)CN2C(=O)CNC(=O)[C@H](Cc2ccc(C(=O)O)cc2)NC(=O)[C@H](Cc2c[nH]c3ccccc23)NC(=O)[C@H](Cc2ccc(-c3ccc(C(=O)O)cc3)cc2)NC(=O)[C@H](CCc2ccc(O)cc2)NC(=O)[C@@H](CO)NC1=O [Example 26] (cyclo([Bip(4'-COOH)]W[Phe(4-COOH)]G[Pro(4R-NH2)][1Nal(3S-Me)]D[dNMeA]G[Bip(4'-COOH)]KL[dS][hTyr])) | 0.0688 |
| C[C@@H]1C(=O)NCC(=O)N[C@@H](Cc2ccc(-c3ccc(C(=O)O)cc3)cc2)C(=O)N[C@@H](Cc2cncnc2)C(=O)N[C@@H](CN)C(=O)N[C@H](C)C(=O)N[C@@H](CCc2cncc(C#N)c2)C(=O)N[C@@H](Cc2ccc(-c3ccc(C(=O)O)cc3)cc2)C(=O)N[C@@H](Cc2c[nH]c3ccccc23)C(=O)N[C@@H](Cc2ccc(C(=O)O)cc2)C(=O)NCC(=O)N2C[C@H](N)C[C@H]2C(=O)N[C@@H]([C@@H](C)c2cccc3ccccc23)C(=O)N[C@@H](CC(=O)O)C(=O)N1C [Example 27] (cyclo([Bip(4'-COOH)]W[Phe(4-COOH)]G[Pro(4R-NH2)][1Nal(3S-Me)]D[dNMeA]G[Bip(4'-COOH)][Ala(pyrimidin-5-yl)][Dap][dA][h3Pal(5-CN)])) | 0.017 |
| C[C@@H]1C(=O)NCC(=O)N[C@@H](Cc2ccc(-c3ccc(C(=O)O)cc3)cc2)C(=O)N[C@@H](Cc2cncnc2)C(=O)N[C@@H](CN)C(=O)N[C@H](C)C(=O)N[C@@H](CCc2ccc(O)cc2)C(=O)N[C@@H](Cc2ccc(-c3ccc(C(=O)O)cc3)cc2)C(=O)N[C@@H](Cc2c[nH]c3ccccc23)C(=O)N[C@@H](Cc2ccc(C(=O)O)cc2)C(=O)NCC(=O)N2C[C@H](N)C[C@H]2C(=O)N[C@@H]([C@@H](C)c2cccc3ccccc23)C(=O)N[C@@H](CC(=O)O)C(=O)N1C [Example 28] (cyclo([Bip(4'-COOH)]W[Phe(4-COOH)]G[Pro(4R-NH2)][1Nal(3S-Me)]D[dNMeA]G[Bip(4'-COOH)][Ala(pyrimidin-5-yl)][Dap][dA][hTyr])) | 0.0393 |
| C[C@@H]1C(=O)NCC(=O)N[C@@H](Cc2ccc(-c3ccc(C(=O)O)cc3)cc2)C(=O)N[C@@H](Cc2c[nH]c3ncccc23)C(=O)N[C@@H](CN)C(=O)N[C@H](C)C(=O)N[C@@H](CCc2ccc(O)cc2)C(=O)N[C@@H](Cc2ccc(-c3ccc(C(=O)O)cc3)cc2)C(=O)N[C@@H](Cc2c[nH]c3ccccc23)C(=O)N[C@@H](Cc2ccc(C(=O)O)cc2)C(=O)NCC(=O)N2C[C@H](N)C[C@H]2C(=O)N[C@@H]([C@@H](C)c2cccc3ccccc23)C(=O)N[C@@H](CC(=O)O)C(=O)N1C [Example 29] (cyclo([Bip(4'-COOH)]W[Phe(4-COOH)]G[Pro(4R-NH2)][1Nal(3S-Me)]D[dNMeA]G[Bip(4'-COOH)][Trp(7-aza)][Dap][dA][hTyr])) | 0.0205 |
| C[C@@H]1C(=O)NCC(=O)N[C@@H](Cc2ccc(-c3ccc(C(=O)O)cc3)cc2)C(=O)N[C@@H](Cc2c[nH]c3ccccc23)C(=O)N[C@@H](CN)C(=O)N[C@H](C)C(=O)N[C@@H](CCc2cncc(C#N)c2)C(=O)N[C@@H](Cc2ccc(-c3ccc(C(=O)O)cc3)cc2)C(=O)N[C@@H](Cc2c[nH]c3ccccc23)C(=O)N[C@@H](Cc2ccc(C(=O)O)cc2)C(=O)NCC(=O)N2C[C@H](N)C[C@H]2C(=O)N[C@@H]([C@@H](C)c2cccc3ccccc23)C(=O)N[C@@H](CC(=O)O)C(=O)N1C [Example 30] (cyclo([Bip(4'-COOH)]W[Phe(4-COOH)]G[Pro(4R-NH2)][1Nal(3S-Me)]D[dNMeA]G[Bip(4'-COOH)]W[Dap][dA][h3Pal(5-CN)])) | 0.0185 |
| C[C@@H]1C(=O)NCC(=O)N[C@@H](Cc2ccc(-c3ccc(C(=O)O)cc3)cc2)C(=O)N[C@@H](Cc2c[nH]c3ccccc23)C(=O)N[C@@H](CN)C(=O)N[C@H](C)C(=O)N[C@@H](CCc2ccc(O)cc2)C(=O)N[C@@H](Cc2ccc(-c3ccc(C(=O)O)cc3)cc2)C(=O)N[C@@H](Cc2c[nH]c3ccccc23)C(=O)N[C@@H](Cc2ccc(C(=O)O)cc2)C(=O)NCC(=O)N2C[C@H](N)C[C@H]2C(=O)N[C@@H]([C@@H](C)c2cccc3ccccc23)C(=O)N[C@@H](CC(=O)O)C(=O)N1C [Example 31] (cyclo([Bip(4'-COOH)]W[Phe(4-COOH)]G[Pro(4R-NH2)][1Nal(3S-Me)]D[dNMeA]G[Bip(4'-COOH)]W[Dap][dA][hTyr])) | 0.0208 |
| C[C@@H]1C(=O)NCC(=O)N[C@@H](Cc2ccc(-c3ccc(C(=O)O)cc3)cc2)C(=O)N[C@@H](Cc2c[nH]c3ccccc23)C(=O)NCC(=O)N[C@H](CCN)C(=O)N[C@@H](CCc2ccc(O)cc2)C(=O)N[C@@H](Cc2ccc(-c3ccc(C(=O)O)cc3)cc2)C(=O)N[C@@H](Cc2c[nH]c3ccccc23)C(=O)N[C@@H](Cc2ccc(C(=O)O)cc2)C(=O)NCC(=O)N2C[C@H](N)C[C@H]2C(=O)N[C@@H]([C@@H](C)c2cccc3ccccc23)C(=O)N[C@@H](CC(=O)O)C(=O)N1C [Example 32] (cyclo([Bip(4'-COOH)]W[Phe(4-COOH)]G[Pro(4R-NH2)][1Nal(3S-Me)]D[dNMeA]G[Bip(4'-COOH)]WG[dDab][hTyr])) | 0.033 |
| CC(C)C[C@@H]1NC(=O)[C@H](Cc2cccc3ccccc23)NC(=O)[C@H](Cc2ccc(-c3ccc(C(=O)O)cc3)cc2)NC(=O)CNC(=O)[C@@H](C)N(C)C(=O)[C@H](C)NC(=O)[C@H]([C@@H](C)c2c[nH]c3cccc(Cl)c23)NC(=O)[C@@H]2C[C@@H](N)CN2C(=O)CNC(=O)[C@H](Cc2ccc(C(=O)O)cc2)NC(=O)[C@H](Cc2c[nH]c3ccccc23)NC(=O)[C@H](Cc2ccc(-c3ccc(C(=O)O)cc3)cc2)NC(=O)CNC(=O)C(C)(C)NC1=O [Example 33] (cyclo([Bip(4'-COOH)]W[Phe(4-COOH)]G[Pro(4R-NH2)][Trp(4-Cl)(βS-Me)]A[dNMeA]G[Bip(4'-COOH)][1Nal]L[Aib]G)) | 0.544 |
| C[C@@H]1C(=O)NCC(=O)N[C@@H](Cc2ccc(-c3ccc(C(=O)O)cc3)cc2)C(=O)N[C@@H](Cc2cccc3ccccc23)C(=O)N[C@@H](CN)C(=O)NC(C)(C)C(=O)N[C@@H](CCc2cncc(C#N)c2)C(=O)N[C@@H](Cc2ccc(-c3ccc(C(=O)O)cc3)cc2)C(=O)N[C@@H](Cc2c[nH]c3ccccc23)C(=O)N[C@@H](Cc2ccc(C(=O)O)cc2)C(=O)NCC(=O)N2C[C@H](N)C[C@H]2C(=O)N[C@@H]([C@@H](C)c2c[nH]c3cccc(Cl)c23)C(=O)N[C@@H](CC(=O)O)C(=O)N1C [Example 34] (cyclo([Bip(4'-COOH)]W[Phe(4-COOH)]G[Pro(4R-NH2)][Trp(4-Cl)(βS-Me)]D[dNMeA]G[Bip(4'-COOH)][1Nal][Dap][Aib][h3Pal(5-CN)])) | 0.0755 |
| CC(C)C[C@@H]1NC(=O)[C@H](Cc2cccc3ccccc23)NC(=O)[C@H](Cc2ccc(-c3ccc(C(=O)O)cc3)cc2)NC(=O)CNC(=O)[C@@H](C)N(C)C(=O)[C@H](CC(=O)O)NC(=O)[C@H]([C@@H](C)c2c[nH]c3cccc(Cl)c23)NC(=O)[C@@H]2C[C@@H](N)CN2C(=O)CNC(=O)[C@H](Cc2ccc(C(=O)O)cc2)NC(=O)[C@H](Cc2c[nH]c3ccccc23)NC(=O)[C@H](Cc2ccc(-c3ccc(C(=O)O)cc3)cc2)NC(=O)CNC(=O)C(C)(C)NC1=O [Example 35] (cyclo([Bip(4'-COOH)]W[Phe(4-COOH)]G[Pro(4R-NH2)][Trp(4-Cl)(βS-Me)]D[dNMeA]G[Bip(4'-COOH)][1Nal]L[Aib]G)) | 0.16 |
